Target: Rho-associated protein kinase 2 (Homo sapiens, UniProt O75116)
Test: In Vitro Assays
Procedure: The effectiveness of compounds of the present invention as ROCK inhibitors can be determined in a 30 μL assay containing 20 mM HEPES, pH 7.5, 20 mM MgCl2, 0.015% Brij-35, 4 mM DTT, 5 μM ATP and 1.5 μM peptide substrate (FITC-AHA-AKRRRLSSLRA-OH) (SEQ ID No. 1). Compounds were dissolved in DMSO so that the final concentration of DMSO was <2%, and the reaction was initiated with Rho kinase variants. After incubation, the reaction was terminated by the addition of EDTA and the phosphorylated and non-phosphorylated peptides separated using a LABCHIP 3000 Reader (Caliper Life Sciences). […] Compounds were tested in dose-response format, and the inhibition of kinase activity was calculated at each concentration of compound. The inhibition data were fit using a curve-fitting program to determine the IC50; i.e., the concentration of compound required to inhibit 50% of kinase activity.

Chain of Rho-associated protein kinase 2 (O75116 whole entry): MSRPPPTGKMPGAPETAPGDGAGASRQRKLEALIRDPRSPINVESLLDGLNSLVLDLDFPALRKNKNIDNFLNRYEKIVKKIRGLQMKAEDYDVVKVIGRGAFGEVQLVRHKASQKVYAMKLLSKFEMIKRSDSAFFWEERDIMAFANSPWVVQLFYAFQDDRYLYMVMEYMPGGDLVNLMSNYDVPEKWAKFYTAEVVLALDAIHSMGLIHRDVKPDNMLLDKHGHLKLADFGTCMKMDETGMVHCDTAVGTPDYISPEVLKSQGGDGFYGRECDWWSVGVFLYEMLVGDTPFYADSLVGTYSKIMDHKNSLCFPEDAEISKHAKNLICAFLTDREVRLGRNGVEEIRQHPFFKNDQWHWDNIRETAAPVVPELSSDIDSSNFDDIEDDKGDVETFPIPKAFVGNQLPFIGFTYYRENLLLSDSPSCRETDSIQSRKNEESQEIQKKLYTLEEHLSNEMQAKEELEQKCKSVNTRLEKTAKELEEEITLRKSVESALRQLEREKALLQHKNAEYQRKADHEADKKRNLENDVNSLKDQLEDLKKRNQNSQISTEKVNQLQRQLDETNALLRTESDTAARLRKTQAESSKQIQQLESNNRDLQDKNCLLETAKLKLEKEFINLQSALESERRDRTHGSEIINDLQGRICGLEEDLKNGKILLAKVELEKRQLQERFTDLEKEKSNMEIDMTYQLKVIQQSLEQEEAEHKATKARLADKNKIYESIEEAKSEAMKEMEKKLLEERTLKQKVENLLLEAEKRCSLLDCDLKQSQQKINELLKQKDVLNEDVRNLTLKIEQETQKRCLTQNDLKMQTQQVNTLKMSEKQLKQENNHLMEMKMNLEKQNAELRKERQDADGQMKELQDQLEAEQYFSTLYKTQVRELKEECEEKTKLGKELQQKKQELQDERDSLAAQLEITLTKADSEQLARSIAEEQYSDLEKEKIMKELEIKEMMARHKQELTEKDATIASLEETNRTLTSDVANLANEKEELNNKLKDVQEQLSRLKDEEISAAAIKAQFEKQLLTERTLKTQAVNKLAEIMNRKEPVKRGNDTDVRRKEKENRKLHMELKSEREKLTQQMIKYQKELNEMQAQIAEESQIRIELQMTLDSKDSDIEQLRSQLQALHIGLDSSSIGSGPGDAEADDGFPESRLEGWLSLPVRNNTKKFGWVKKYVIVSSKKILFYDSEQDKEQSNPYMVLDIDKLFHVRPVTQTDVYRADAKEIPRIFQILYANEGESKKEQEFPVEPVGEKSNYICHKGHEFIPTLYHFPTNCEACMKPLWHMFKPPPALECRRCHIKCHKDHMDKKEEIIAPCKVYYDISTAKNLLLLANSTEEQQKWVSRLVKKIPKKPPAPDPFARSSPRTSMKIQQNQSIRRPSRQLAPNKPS

| IC50 | Compound |
| --- | --- |
| 6 nM | NC(=O)c1cccnc1O[C@H]1CC2(C1)C[C@H](N1C(=O)CN(c3ccc(OC(F)(F)F)cc3)C1=O)C2 (stereo partly drawn) [US11447487, Example 86] |
| 13 nM | NC(=O)c1cccnc1O[C@H]1CC2(C1)C[C@H](N1C(=O)NC(CCC3CCCCC3)C1=O)C2 (stereo partly drawn) [US11447487, Example 4] |
| 456 nM | NC(=O)c1cccnc1O[C@H]1CC2(C1)C[C@H](N1C(=O)CC(Cc3ccccc3)NC1=O)C2 (stereo partly drawn) [US11447487, Example 76] |
